Data on two compounds can be found in patent US4864023A, “Pyrido(3,2,1-IJ)-1,3,4-benzoxadiazine derivatives” (priority 1988, dated 1989).

Converted amounts (≈) assume the structure as drawn.

Type in all cases: cell-based
For assay [1], the system named is Klebsiella pneumoniae FDA PCI 602. The assay can be described thus: in vitro antibacterial activity, standard agar dilution method. The following applies: FDAPCI602, aerobic, read-out: minimum inhibitory concentration (MIC). In general terms: In agar dilution the substance is mixed into plates at graded concentrations.
Assay [2] deals with Peptostreptococcus anaerobius NR 2743. The assay is described as above. The following applies: NR2743, anaerobic, read-out: minimum inhibitory concentration (MIC).
Assay [3] deals with Clostridium perfringens NR 2612. The assay can be described thus: microbe, parasite or virus in culture. The following applies: NR2612, read-out: minimum inhibitory concentration (MIC).
Assay [4] relates to Bacteroides fragilis ATCC 23745. Description: in vitro antibacterial activity, standard agar dilution method. Conditions: ATCC23745, anaerobic, read-out: minimum inhibitory concentration (MIC).
Assay [5] deals with Clostridium moniliforme ATCC 25546. Described as above. The following applies: ATCC25546, anaerobic, read-out: minimum inhibitory concentration (MIC).
Assay [6] has as its system Bacteroides fragilis NR 2584. The description is as above. Conditions: NR2584, anaerobic, read-out: minimum inhibitory concentration (MIC).
The test system of assay [7] is Proteus rettgeri ATCC 14505. The assay is described as above. The following applies: Providencia rettgeri, ATCC14505, aerobic, read-out: minimum inhibitory concentration (MIC).
In assay [8] the test system is Pseudomonas aeruginosa NR 2950. The assay is described as above. Conditions: NR2950, aerobic, read-out: minimum inhibitory concentration (MIC).
For assay [9], the system named is Pseudomonas stutzeri IFO 12695. The assay is described as above. The following applies: Stutzerimonas stutzeri, IFO12695, aerobic, read-out: minimum inhibitory concentration (MIC).
Assay [10] relates to Bacteroides thetaiotaomicron NR 2588. Described as above. Conditions: NR2588, anaerobic, read-out: minimum inhibitory concentration (MIC).
The subject of assay [11] is Bacteroides fragilis NR 2582. Described as above. Conditions: NR2582, anaerobic, read-out: minimum inhibitory concentration (MIC).
Assay [12] concerns Enterococcus faecalis NR 2943. The description is as above. The following applies: NR2943, aerobic, read-out: minimum inhibitory concentration (MIC).
The subject of assay [13] is Fusobacterium varium ATCC 8501. Described as above. The following applies: ATCC8501, anaerobic, read-out: minimum inhibitory concentration (MIC).

In the case of `CN1COc2c(N3CCC(N)C3)c(F)cc3c(=O)c(C(=O)O)cn1c23` (stereo not shown) [Example 30, 10-(3-amino-1-pyrrolidinyl)-9-fluoro-3-methyl-7-oxo-2,3-dihydro-7H-pyrido[3,2,1-ij]-1,3,4-benzoxadiazine-6-carboxylic acid], the MIC in assay [1] was 0.1 µg/mL (≈ 0.287 µM); in [2] it was 0.013 µg/mL (≈ 0.0373 µM); in assay [3] it was 0.1 µg/mL (≈ 0.287 µM); in assay [4], 0.2 µg/mL (≈ 0.574 µM); in assay [5], 0.1 µg/mL (≈ 0.287 µM); in [6] it was 0.78 µg/mL (≈ 2.24 µM). Moreover, the MIC stood at 0.1 µg/mL (≈ 0.287 µM) in assay [7]; 0.2 µg/mL (≈ 0.574 µM) in [8]; 0.0033 µg/mL (≈ 0.00947 µM) in assay [9]; 0.78 µg/mL (≈ 2.24 µM) in [10]; 0.39 µg/mL (≈ 1.12 µM) in [11]; 3.13 µg/mL (≈ 8.99 µM) in assay [12].

With `CN1CCN(c2c(F)cc3c(=O)c(C(=O)O)cn4c3c2OCN4C)CC1` [Example 5, 9-fluoro-3-methyl-10-(4-methyl-1-piperazinyl)-7-oxo-2,3-dihydro-7H-pyrido[3,2,1-ij]-1,3,4-benzoxadiazine-6-carboxylic acid], the MIC in assay [1] was 0.1 µg/mL (≈ 0.276 µM); in assay [2], 0.39 µg/mL (≈ 1.08 µM); in assay [3], 0.39 µg/mL (≈ 1.08 µM); in assay [4], 0.78 µg/mL (≈ 2.15 µM); in assay [5], 0.78 µg/mL (≈ 2.15 µM); in [6], 0.78 µg/mL (≈ 2.15 µM). The MIC came to 0.2 µg/mL (≈ 0.552 µM) in assay [7]; 0.78 µg/mL (≈ 2.15 µM) in assay [8]; 0.025 µg/mL (≈ 0.069 µM) in assay [9]; 1.56 µg/mL (≈ 4.31 µM) in assay [10]; 0.78 µg/mL (≈ 2.15 µM) in assay [11]; 12.5 µg/mL (≈ 34.5 µM) in assay [13]. Also, the MIC in assay [12] was 3.13 µg/mL (≈ 8.64 µM).
